The values that follow come from patent US20220041616A1, “SPIRO COMPOUND AND MEDICAL USES THEREOF” (The National Institutes of Pharmaceutical R&D Co., Ltd., priority 2018, published 2022).

The target in one data set is T1, ACC1 (Homo sapiens, UniProt Q13085).
T1 construct: purchased BPS bioscience
Kind of data set: In vitro inhibition of ACC1 activity, ADP-Glo Kinase Analysis. Format: biochemical. Conditions: 1 nM ACC1, 10 μM acetyl-CoA, 20 μM ATP. An excerpt: ADP-Glo™ Kinase Analysis Kit (Promega) is used for the in vitro analysis of the inhibitory effect of the present compound on ACC1 or ACC2. ADP-Glo™ Kinase Analysis is a kinase detection analysis of luminescence method. ADP is produced in the process of catalyzing the substrate by ACC. ADP is converted into ATP which is then converted into light by Ultra-Glo™ luciferase. ADP is quantified by detecting the light signal, thus the enzyme activity can be measured by quantification of the ADP amount produced during the enzyme reaction. The analysis is carried out in two steps: in the first step, after the kinase reaction, a portion of ADP-Glo™ reagent equal in volume to the kinase reaction system is added to terminate the reaction and consume the remaining ATP; in the second step, a kinase detection reagent is added, which not only converts ADP into ATP, but also uses a coupled luciferase/luciferin reaction to detect newly synthesized ATP.
a. 10 mM compound stock solution (the present compound was dissolved in 100% DMSO to prepare the 10 mM stock solution) was diluted 50-fold to 200 μM with 100% DMSO, and then diluted in equal proportions (1:3) in a 96-well dilution plate (249944, Nunc). The gradient concentrations of the compound were 200 μM, 66.67 μM, 22.22 μM, 7.41 μM, 2.47 μM, 0.823 μM, 0.274 μM, 0.0914 μM, 0.0305 μM, 0.0102 μM, 0.00339 μM and 0.00113 μM.
b. 4.5 μL ACC1 working solution (BPS bioscience) (2.22 nM) was added to each well of a 384-well test plate (6007290, Perkin Elmer).
c. 0.5 μL of the serially diluted compound (prepared in step a) was added to each well of the 384-well test plate, which was centrifuged at 1000 rpm for 1 min and then incubated at room temperature for 15 min. The reaction system with compound GS-0976 at a final concentration of 0.1 μM was used as positive control; the reaction system with no compound but DMSO at a final concentration of 5% was used as negative control.
d. In the 384-well test plate (prepared in step c), 5 μL of the substrate working solution was added to each well to start the enzymatic reaction. The plate was centrifuged at 1000 rpm for 1 min and then incubated at room temperature for 30 min. The final concentration of each component in the ACC1 reaction system: 1 nM ACC1, 10 μM acetyl-CoA, 30 mM NaHCO3, and 20 μM ATP. The final concentration of each component in the ACC2 reaction system: 1.1 nM ACC2, 20 μM acetyl-CoA, 20 mM NaHCO3, and 15 μM ATP. Final concentrations of test compounds: 10 μM, 3.33 μM, 1.11 μM, 0.37 μM, 0.123 μM, 0.0411 μM, 0.0137 μM, 0.00457 μM, 0.00152 μM, 0.00051 μM, 0.00017 μM and 0.000056 μM. The final concentration of DMSO was 5% (v/v).
e. 10 μL of ADP-Glo reagent was added to each well of the 384-well test plate (prepared in step d), which was centrifuged at 1000 rpm for 1 min and then incubated at room temperature for 40 min.
f. 20 μL of kinase detection reagent was added to each well of the 384-well test plate (prepared in step e), which was centrifuged at 1000 rpm for 1 min and then incubated at room temperature for 40 min.
g. The chemiluminescence signal was detected with Perkin Elmer EnVision 2104.
ACC1 working solution and substrate working solution were both prepared with 1× kinase reaction buffer. The buffer was consisting of 50 mM HEPES buffer, 2 mM magnesium chloride, 0.01% BRIJ-35, 2 mM potassium citrate, 50 μg/mL BSA and 2 mM DTT.
The average value of the positive and negative control well and the standard deviation were calculated. The inhibition percentage was calculated according to the following formula: 100×[1−(compound−average value of positive control)/(average value of negative control-average value of positive control)].
IC50 of the compound was obtained using GraphPad Prism 6 software according to the following nonlinear fitting formula:
Y=Bottom+(Top−Bottom)/(1+10^((Log IC50−X)×Hillslope)), […]
For orientation: ADP-Glo turns the ADP formed in a reaction into a luminescent signal.

The next data set concerns patients. Conditions: 10 patients, 20 mg orally once a day for 12 weeks; cited from earlier work.
Data set [1] relates to patients with non-alcoholic steatohepatitis (NASH). Conditions: cited from earlier work.

Bounds are passed on as bounds.

The term IC50 denotes the point on the concentration scale where inhibition reaches its midpoint. The low end stands for greater potency, the high end for weaker potency. For the compound `COC(=O)C(=O)N1CCC2(CC1)C(=O)c1c(sc(-c3ncco3)c1C)N(C[C@H](OC1CCOCC1)c1ccccc1OC)C2=O` [Compound 26, methyl (R)-2-(7′-(2-(2-methoxyphenyl)-2-((tetrahydro-2H-pyran-4-yl)oxy)ethyl)-3′-methyl-2′-(oxazol-2-yl)-4′,6′-dioxo-6′,7′-dihydro-4′H-spiro[piperidine-4,5′-thieno[2,3-d]pyridin]-1-yl)-2-oxoacetate], the IC50 against ACC1 was below 10 nM. On the same count and under the same terms, in the case of `COc1ccccc1[C@H](CN1C(=O)C2(CCN(C(=O)C(=O)O)CC2)C(=O)c2c1sc(-c1ncco1)c2C)OC1CCOCC1` [Compound 27, (R)-2-(7′-(2-(2-methoxyphenyl)-2-((tetrahydro-2H-pyran-4-yl)oxy)ethyl)-3′-methyl-2′-(oxazol-2-yl)-4′,6′-dioxo-6′,7′-dihydro-4′H-spiro[piperidine-4,5′-thieno[2,3-d]pyridin]-1-yl)-2-oxoacetic Acid] it was below 10 nM; in that of `COC(=O)N1CCC2(CC1)C(=O)c1c(sc(-c3ncco3)c1C)N(C[C@H](OC1CCOCC1)c1ccccc1OC)C2=O` [Compound 28, methyl (R)-7′-(2-(2-methoxyphenyl)-2-((tetrahydro-2H-pyran-4-yl)oxy)ethyl)-3′-methyl-2′-(oxazol-2-yl)-4′,6′-dioxo-6′,7′-dihydro-4′H-spiro[piperidine-4,5′-thieno[2,3-d]pyridine]-1-carboxylate], below 10 nM. Compound `COc1ccccc1[C@H](CN1C(=O)C2(CCN(C(=O)NCC(=O)O)CC2)C(=O)c2c1sc(-c1ncco1)c2C)OC1CCOCC1` [Compound 29, (R)-(7′-(2-(2-methoxyphenyl)-2-((tetrahydro-2H-pyran-4-yl)oxy)ethyl)-3′-methyl-2′-(oxazol-2-yl)-4′,6′-dioxo-6′,7′-dihydro-4′H-spiro[piperidine-4,5′-thieno[2,3-d]pyridine]-1-carbonyl)glycine] gave an IC50 on ACC1 below 10 nM. Consider `COc1ccccc1[C@H](CN1C(=O)C2(CCN(S(=O)(=O)O)CC2)C(=O)c2c1sc(-c1ncco1)c2C)OC1CCOCC1` [Compound 30], for which, at ACC1, the half-inhibitory concentration (IC50) is below 10 nM. On the same count and under the same terms, with `COc1ccccc1[C@H](CN1C(=O)C2(CCN(C(N)=O)CC2)C(=O)c2c1sc(-c1ncco1)c2C)OC1CCOCC1` [Compound 31] the figure was below 10 nM; with `CNC(=O)N1CCC2(CC1)C(=O)c1c(sc(-c3ncco3)c1C)N(C[C@H](OC1CCOCC1)c1ccccc1OC)C2=O` [Compound 32], below 10 nM. Take `COc1ccccc1[C@H](CN1C(=O)C2(CCN(C(=O)NCCO)CC2)C(=O)c2c1sc(-c1ncco1)c2C)OC1CCOCC1` [Compound 33]: on ACC1, the IC50 was below 10 nM. With `COc1ccccc1[C@H](Cn1c(=O)n(C(C)(C)C(=O)O)c(=O)c2c(C)c(-c3ncco3)sc21)OC1CCOCC1` [GS-0976], the “liver fat content and non-invasive fibrosis markers” value in the data set with patients is reported as “statistically significant improvements”. Besides, the “relative decrease of liver fat content” value in data set [1] (12th week, MRI-PDFF) was 43%. The “median cirrhosis, non-invasive marker of fibrosis, by magnetic resonance elastography (MRE)” value in data set [1] (12th week, baseline 3.4 kPa, p=0.049) is on record as 3.1 kPa. Besides, the “liver fat content measured by MRI-PDFF” value in data set [1] (12th week, baseline 15.7%, p=0.006) is 9.0%. The “decrease of the amount of denovo fat synthesis from the baseline level, median” value in data set [1] (after 12 weeks) was 29%. In addition, in data set [1] (most common adverse events nausea, abdominal pain and diarrhea), the tolerability entry is on record as “well tolerated”.
